Measurements as given in patent US7625917B2, “Thiolesters and uses thereof” (priority 1998, dated 2009).
pEC50, pIC50: −log10 of the molar value. Like-named read-outs stand apart in the source and are kept apart here.

Columns and labels:
[1] = molecular target: T1, Virion-associated NCp7 proteins from cell-free HIV-1MN (Human immunodeficiency virus type 1 group M subtype B, UniProt P05888); test: Virion NCp7 cross-linking (non-reducing Western blotting)
T1 construct: attack on the mature NCp7 retroviral zinc fingers in the cell-free virus; endogenous in cells
Description: The interaction of zinc finger inhibitors, such as the thiolesters of the invention, with cell-free virus can result in modification of intravirion NCp7 protein and loss of infectivity. Virion-associated NCp7 proteins from cell-free HIV-1MN were treated with thiolester compounds 44 and 45. They were also evaluated by non-reducing Western blotting using HIV-1 NCp7-specific antibodies. […] Cross-linking by compound 45 was due to formation of intermolecular disulfide bonds because reduction with 2-mercaptoethanol (β-ME) completely reversed the gel retardation.
Virion cross linking was performed as described by Rice (1995) Science 270:1194-1197 and Turpin (1997) Antiviral Chem. Chemother. 8:60-67. Briefly, highly purified HIV-1MN (11.8 μg total protein) was incubated for 2 hour with concentrations of compound. Virions were concentrated and residual compound was removed by centrifugation (18,000×g, 1 h, 4° C.). The viral pellet was solubilized in 0.5 M Tris-HCl, (pH 6.8), 50% glycerol, 8% SDS and 0.4% bromophenol blue and proteins resolved by Western blotting. Western blotting to detect the expression of HIV-1 proteins in U1 cells or virus pellets for virion cross-linking experiments was carried out as described by Turpin (1996) J. Virol. 70:6180-6189. Briefly, 50 μg of total cellular protein for U1 experiments or the. total virion pellet (11.8 μg total viral protein) for NCp7 cross linking studies was resolved on 4 to 20% polyacrylamide gels in SDS with Tris-Glycine (Novex, San Diego Calif.). Samples for reduced gels were boiled for 5 min in the presence of 5% β-ME prior to loading. Resolved proteins were electroblotted on to polyvinylidene difluoride (PVDF) membranes, and HIV-1 specific proteins were detected using a mixture of goat anti-HIV-1 NCp7 and p24 or anti-NCp7 for virion proteins alone (a kind gift of L. E. Henderson, AIDS Vaccine Program NCI-FCRDC, Frederick, Md.). Western blots were developed using standard chemiluminescence methodologies, as produced and described by Dupont-NEN, Wilmington, Del.
Purified concentrated retrovirus and antisera against the purified NC protein of the virus can be used to test the ability of a specific compound to penetrate the virus and react with the NC protein by forming disulfide complexes in the core of the virus. Compound are mixed with the whole retrovirus under reaction conditions appropriate for the compound. The virus is then removed from the reagent by centrifugation and disrupted in, e.g., standard SDS-PAGE sample buffer with (reduced) and without (non-reduced) 2-mercaptoethanol. The viral proteins are then separated by standard SDS-PAGE and the sample examined for the presence or absence of the monomeric zinc finger protein in the non-reduced sample. Depending upon the virus used in the experiment and the conditions of electrophoresis, the zinc finger protein can be visualized by protein staining methods, or by immuno-blot methods. Compounds which react with the zinc finger protein by attacking the zinc finger complexes and forming disulfide cross-linked products inactivate the virus. Thus, compounds of interest (i.e., those which cause cross-linking), including the thiolesters of the invention, reduce the amount of monomeric zinc finger protein detected.

HIV-1 virus = test: Virus inactivation by PCR assay of treated virions; type: cell-based
Description: The thiolester-treated virions can also be tested for infectivity. The virions are suspended in media (rather than solubilized) and added to target cells. The cultures are then examined to determine whether the virions are still active. To determine whether the treated virus particles are active, the cells are monitored for the presence of intracellularly-synthesized viral RNA using, for example, the polymerase chain reaction (PCR) (Rice (1993) Proc. Natl. Acad. Sci. USA 90:9721;Turpin (1996) J. Virol. 70:6180). Alternatively, cytoprotection assays can be used (Weislow (1993) J. Natl. Cancer Inst. 81:577).
An example of a compound which can be used as a control in the gel mobility shift assay is azodicarbonamide (ADA), a compound which is commercially available from the Aldrich Chemical Company (Milwaukee, Wis.).

HIV-1RF = test: XTT cytoprotection assay (antiviral activity); type: cell-based; conditions: Table 5; read-out: EC50
Description: One exemplary means to determine antiviral activity is with CEM-SS cells and virus (e.g., HIV-1RF) (MOI=0.01) using the XTT (2,3-bis[2-methoxy-4-nitro-5-sulfophenyl]-5-[(phenylamino)carbonyl]-2H-tetrazolium hydroxide) cytoprotection assay, as described by Rice (1993) PNAS 90:9721-9724, and Rice (1997) Antimicrob. Agents Chemother. 41:419-426. Briefly, cells are infected with HIV-1 RF (or other virus to be tested) in the presence of various dilutions of test compounds (thiolesters and controls). The cultures are incubated for seven days. During this time control cultures without protective compounds (i.e., compounds with anti-viral activity) replicate virus, induce syncytia, and result in about 90% cell death. The cell death is measured by XTT dye reduction. XTT is a soluble tetrazolium dye that measures mitochondrial energy output, similar to MTT. Positive controls using dextran sulfate (an attachment inhibitor) or 3′-Azido-2′-3′-dideoxythymidine, AZT (a reverse transcriptase inhibitor) are added to each assay. Individual assays are done in duplicate using a sister plate method.
Effective antiviral concentrations providing 50% cytoprotection (EC50), and cellular growth inhibitory concentrations causing 50% cytotoxicity (IC50) are calculated.

[2] = molecular target: T2, recombinant HIV-1 NCp7 protein (Human immunodeficiency virus type 1 group M subtype B, UniProt P03347); test: Trp37 zinc finger fluorescence (zinc ejection) assay; type: biochemical; conditions: Table 5; average decrease in relative fluorescence units over 30 min
T2 construct: recombinant HIV-1 NCp7 protein
Description: Zinc finger reactivity was measured using a Zn specific fluorochrome, TSQ, N-(6-methoxy-8-quinolyl)-p-toluenesulfonamide, assay or a Trp37 zinc finger fluorescence assay. Fluorescent measurements of the Trp37 residue in the C-terminal finger of recombinant HIV-1 NCp7 protein were performed as described by Rice (1995) Science 270:1194-1197; Rice (1997) Antimicrob. Agents Chemother. 41:419-426. Measurement of Zn ejection from both fingers was measured using the Zn-selective fluorchrome probe TSQ (Molecular Probes, Eugene Oreg.) as described by Rice (1996) J. Med. Chem 39:3606-3616. […] Briefly, 50 nM NCp7 was treated with test compounds for 1 hour at RT in […] buffer containing 10% glycerol and 50 mM Tris-HCl (pH 7.5). Labeled oligomer (0.1 picomole, end labeled [^32P] was added in an equal volume of buffer containing 10% glycerol, 50 mM Tris-HCl (pH 7.5), 400 mM KCl and 40 mM MgCl2. The reaction was continued for 15 min at room temperature, and a total of […] (or ¼ of the total reaction volume) was separated on nondenaturing 4.5% polyacrylamide gels in 0.5× Tris-Borate electrophoresis buffer. NCp7-oligomer complexes were visualized by autoradiography.
Changes in the intrinsic fluorescence of aromatic protein moieties are commonly used to monitor a reaction which involves a change in protein conformation. In the present invention, fluorescence can be used to monitor the loss of metal ion from a zinc finger, e.g., the loss of zinc from a CCHC retroviral zinc finger protein, after contact with a thiolester of the invention. The intrinsic fluorescence of Trp37 in the second zinc finger of HIV-1 NC protein has been used to monitor nucleic acid binding and conformation of the zinc finger complex (see, Summers (1992) supra).
Zinc ejection is measured by the ability of compounds to chemically attack the cysteines in purified NCp7 protein resulting in a loss of fluorescence due to the. movement of the tryptophan 37 residue […] position on the protein. Zinc ejection is measured and expressed as either percent decrease in total fluorescence or decrease in relative fluorescence units per min during a 30 min assay (RFU/min). A thiolester is considered within the scope of the invention if any amount of zinc ejection is detected.

CEM-SS cells = test: cells; type: cell-based
Description: Agents Chemother. […] Briefly, cells are infected with HIV-1 RF (or other virus to be tested) in the presence of various dilutions of test compounds (thiolesters and controls). The cultures are incubated for seven days. […] The cell death is measured by XTT dye reduction. XTT is a soluble tetrazolium dye that measures mitochondrial energy output, similar to MTT. Positive controls using dextran sulfate (an attachment inhibitor) or 3′-Azido-2′-3′-dideoxythymidine, AZT (a reverse transcriptase inhibitor) are added to each assay. Individual assays are done in duplicate using a sister plate method.

Cc1cn([C@H]2C[C@H](N=[N+]=[N-])[C@@H](CO)O2)c(=O)[nH]c1=O [AZT, 3′-Azido-2′-3′-dideoxythymidine, reference compound]
intravirion NCp7 cross-linking (in words) [1]: failed to cross-link NCp7

NC(=O)N=NC(N)=O [ADA, azodicarbonamide]
inactivation of HIV-1 virus (in words) (HIV-1 virus): inactivates HIV-1 virus

CC(=O)NS(=O)(=O)c1ccc(NC(=O)c2ccccc2SC(C)=O)cc1 [Compound 40]
pEC50 (HIV-1RF): 5.55
Zinc Finger Reactivity RFU/min [2]: 4.2 RFU/min
IC50 (CEM-SS cells; Table 5, 50% cytotoxicity, read-out: IC50): 56.7 µM
pIC50 (CEM-SS cells; read-out: IC50 range): ~4.30
